In patent publication US10752609B2, “GSK-3 inhibitors” (priority 2016, dated 2020) one finds IC50 data, which are given here for 29 compounds.

Where two headings read alike, the source gives them in different places.

The target in test [1] is GSK3α (Homo sapiens, UniProt P49840). The test can be described thus: GSK3α kinase assay (Caliper LabChip3000 mobility shift, fluoresceinated peptide substrate).
The target in test [2] is GSK3β (Homo sapiens, UniProt P49841). The test can be described thus: GSK3β kinase assay (Caliper LabChip3000 mobility shift, fluoresceinated peptide substrate). The test is classed as biochemical.
Experimental: The kinase assay was performed in V-bottom 384-well plates. […] The reaction was incubated at room temperature for 20 hours and terminated by adding 45 μl of 35 mM EDTA to each sample. The reaction mixture was analyzed on the Caliper LabChip3000 (Caliper, Hopkinton, Mass.) by electrophoretic separation of the unphosphorylated substrate and phosphorylated product. […] Compounds were dissolved at 10 mM in dimethylsulfoxide (DMSO) and evaluated at eleven concentrations. IC50 values were derived by non-linear regression analysis.
Test [3] has as its system pTau. The test can be described thus: pTau assay (no method described). The test is classed as cell-based.
Where [4] appears, read: 250 pM enzyme, 20 uM ATP, 1.5 uM peptide, 20 hours room temperature, first value of cell GSK3β/GSK3α, read-out: GSK3β (nM), IC50.

Sequence of GSK3α (P49840 whole entry, species assumed): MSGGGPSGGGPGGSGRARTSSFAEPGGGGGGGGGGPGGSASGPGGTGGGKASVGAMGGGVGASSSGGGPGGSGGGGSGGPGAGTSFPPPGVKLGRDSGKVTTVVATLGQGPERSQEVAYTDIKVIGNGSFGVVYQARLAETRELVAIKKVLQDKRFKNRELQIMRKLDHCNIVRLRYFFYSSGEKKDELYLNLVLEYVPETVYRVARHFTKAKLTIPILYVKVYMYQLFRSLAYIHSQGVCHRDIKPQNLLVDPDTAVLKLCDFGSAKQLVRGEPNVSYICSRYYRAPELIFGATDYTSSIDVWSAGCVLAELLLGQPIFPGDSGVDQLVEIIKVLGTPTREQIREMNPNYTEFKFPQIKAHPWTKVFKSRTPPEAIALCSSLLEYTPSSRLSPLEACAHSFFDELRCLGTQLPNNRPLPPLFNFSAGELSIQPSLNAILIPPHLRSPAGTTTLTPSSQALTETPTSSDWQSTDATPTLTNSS
Sequence of GSK3β (P49841 whole entry, species assumed): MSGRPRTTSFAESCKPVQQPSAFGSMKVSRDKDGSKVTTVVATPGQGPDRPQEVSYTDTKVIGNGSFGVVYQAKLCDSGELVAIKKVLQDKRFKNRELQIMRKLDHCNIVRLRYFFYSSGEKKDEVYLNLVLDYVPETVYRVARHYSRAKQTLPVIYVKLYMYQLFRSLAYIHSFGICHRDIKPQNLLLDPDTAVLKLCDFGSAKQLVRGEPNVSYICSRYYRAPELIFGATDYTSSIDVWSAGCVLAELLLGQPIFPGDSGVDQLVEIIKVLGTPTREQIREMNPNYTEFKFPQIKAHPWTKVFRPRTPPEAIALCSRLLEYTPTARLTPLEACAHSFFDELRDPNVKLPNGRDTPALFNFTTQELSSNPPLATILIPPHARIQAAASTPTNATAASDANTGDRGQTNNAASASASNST

In the case of `O=C(Nc1cnc(F)cc1N1CCC(F)(F)CC1)c1ccnc(Nc2ccc(OC(F)F)cc2)n1` [Example 181, 2-((4-(Difluoromethoxy)phenyl)amino)-N-(4-(4,4-difluoropiperidin-1-yl)-6-fluoropyridin-3-yl)pyrimidine-4-carboxamide], the IC50 (in general, the concentration at which inhibition is half-maximal) amounted to 1.6 nM in test [1], 1.2 nM in test [2] (setting [4]) and 77 nM in test [3].
For the compound `O=C(Nc1cnccc1-c1ccc(F)cc1)c1ccnc(Nc2ccc(C(F)(F)F)cc2)n1` [Example 47, N-(4-(4-Fluorophenyl)pyridin-3-yl)-2-((4-(trifluoromethyl)phenyl)amino)pyrimidine-4-carboxamide], the 50% inhibitory concentration (IC50) is 0.7 nM in test [1], 2.1 nM in test [2] (setting [4]) and 100 nM in test [3].
On to `O=C(Nc1cnccc1-c1ccc(F)cc1)c1ccnc(NC2CCCC2)n1` [Example 148, 2-(Cyclopentylamino)-N-(4-(4-fluorophenyl)pyridin-3-yl)pyrimidine-4-carboxamide], for which the figures for the concentration for half-maximal inhibition (IC50) in test [1], in test [2] (setting [4]) and in test [3] were 0.3 nM, 0.35 nM and 51 nM, respectively.
The corresponding values for `CC(C)(C)[C@H]1CC[C@@H](Nc2nccc(C(=O)Nc3cnccc3OCC(F)(F)F)n2)CC1` [Example 122] are 12 nM, 8.4 nM and 4200 nM.
The corresponding values for `O=C(Nc1cnccc1OCC(F)(F)F)c1ccnc(Nc2ccc(C(F)(F)F)cc2)n1` [Example 58, N-(4-(2,2,2-Trifluoroethoxy)pyridin-3-yl)-2-((4-(trifluoromethyl)phenyl)amino)pyrimidine-4-carboxamide] are 0.18 nM, 0.3 nM and 10 nM.
On the same counts, the results for `O=C(Nc1cnccc1-c1ccc(F)cc1F)c1ccnc(Nc2ccc3ccccc3c2)n1` [Example 149, N-(4-(2,4-Difluorophenyl)pyridin-3-yl)-2-(naphthalen-2-ylamino)pyrimidine-4-carboxamide] are 0.36 nM, 0.65 nM and 110 nM.
With `O=C(Nc1cnccc1OCC(F)(F)F)c1ccnc(NCc2ccc(F)cc2)n1` [Example 131, 2-((4-Fluorobenzyl)amino)-N-(4-(2,2,2-trifluoroethoxy)pyridin-3-yl)pyrimidine-4-carboxamide], the concentration for half-maximal inhibition (IC50) is 2.2 nM in test [1], 1.8 nM in test [2] (setting [4]) and 160 nM in test [3].
For `CN1CCC(Nc2nccc(C(=O)Nc3cnccc3OCC(F)(F)F)n2)CC1` [Example 142, 2-((1-Methylpiperidin-4-yl)amino)-N-(4-(2,2,2-trifluoroethoxy)pyridin-3-yl)pyrimidine-4-carboxamide], the IC50 in test [1] is 12 nM; in test [2], 14 nM; in test [3], 1000 nM.
Take `O=C(Nc1cncnc1OCC(F)(F)F)c1ccnc(Nc2ccccc2)n1` [Example 76, 2-(Phenylamino)-N-(4-(2,2,2-trifluoroethoxy)pyrimidin-5-yl)pyrimidine-4-carboxamide]: the IC50 came to 0.56 nM in test [1], 1.1 nM in test [2] (setting [4]) and 77 nM in test [3].
The corresponding values for `Cc1nc(OC(F)F)ccc1Nc1nccc(C(=O)Nc2cnccc2-c2ccccc2)n1` [Example 40, 2-((6-(Difluoromethoxy)-2-methylpyridin-3-yl)amino)-N-(4-phenylpyridin-3-yl)pyrimidine-4-carboxamide] are 21 nM, 22 nM and 5200 nM.
As to `O=C(Nc1cnccc1-c1ccc(F)cc1F)c1ccnc(Nc2ccc(F)cc2F)n1` [Example 155], the IC50 in test [1] was found to be 0.97 nM; in test [2] (setting [4]), 1.5 nM; in test [3], 10000 nM.
Take `N#Cc1ccc(Nc2nccc(C(=O)Nc3cnccc3OCC(F)(F)F)n2)cc1` [Example 57, 2-((4-Cyanophenyl)amino)-N-(4-(2,2,2-trifluoroethoxy)pyridin-3-yl)pyrimidine-4-carboxamide]: the IC50 in test [1] was determined as 0.07 nM; in test [2] (setting [4]), 0.08 nM; in test [3], 1.4 nM.
The corresponding values for `O=C(Nc1cncc(-c2ccccc2F)c1)c1ccnc(Nc2cccc(OC(F)(F)F)c2)n1` [Example 187, N-(5-(2-Fluorophenyl)pyridin-3-yl)-2-((3-(trifluoromethoxy)phenyl)amino)pyrimidine-4-carboxamide] are 7.9 nM, 13 nM and 2500 nM.
The corresponding values for `CC(Nc1nccc(C(=O)Nc2cnccc2OCC(F)(F)F)n1)c1ccccc1` (stereo not drawn) [Example 138, 2-((1-Phenylethyl)amino)-N-(4-(2,2,2-trifluoroethoxy)pyridin-3-yl)pyrimidine-4-carboxamide] are 3.2 nM, 6.1 nM and 430 nM.
Take `O=C(Nc1cnccc1-c1ccccc1)c1ccnc(Nc2ccc(Cl)cc2Cl)n1` [Example 23, 2-((2,4-Dichlorophenyl)amino)-N-(4-phenylpyridin-3-yl)pyrimidine-4-carboxamide]: the 50% inhibitory concentration (IC50) in test [1] came to 4.8 nM; in test [2] (setting [4]), 6.2 nM; in test [3], 1600 nM.
On the same counts, the results for `O=C(Nc1cnccc1OCC(F)(F)F)c1ccnc(Nc2ccc(Cl)cc2F)n1` [Example 61, 2-((4-Chloro-2-fluorophenyl)amino)-N-(4-(2,2,2-trifluoroethoxy)pyridin-3-yl)pyrimidine-4-carboxamide] are 0.39 nM, 0.72 nM and 230 nM.
In the case of `CCNc1nccc(C(=O)Nc2cnccc2OCC(F)(F)F)n1` [Example 123, 2-(Ethylamino)-N-(4-(2,2,2-trifluoroethoxy)pyridin-3-yl)pyrimidine-4-carboxamide], the IC50 in test [1] came to 4.5 nM; in test [2] (setting [4]), 0.92 nM; in test [3] it was 55 nM.
On the same counts, the results for `CN1CCC(Nc2nccc(C(=O)Nc3cnccc3-c3ccccc3)n2)CC1` [Example 165, 2-((1-Methylpiperidin-4-yl)amino)-N-(4-phenylpyridin-3-yl)pyrimidine-4-carboxamide] are 110 nM, 91 nM and 3300 nM.
Turning to `O=C(Nc1cncnc1N1CCOCC1)c1ccnc(NCC2CC2)n1` [Example 205, 2-((Cyclopropylmethyl)amino)-N-(4-morpholinopyrimidin-5-yl)pyrimidine-4-carboxamide], the IC50 in test [1] was 22 nM; in test [2], 19 nM; in test [3], 1800 nM.
Consider `O=C(Nc1cnccc1OCC(F)(F)F)c1ccnc(NC2CCOCC2)n1` [Example 124, 2-((Tetrahydro-2H-pyran-4-yl)amino)-N-(4-(2,2,2-trifluoroethoxy)pyridin-3-yl)pyrimidine-4-carboxamide], for which the IC50 in test [1] came out at 0.95 nM; in test [2], 0.99 nM; in test [3], 68 nM.
As for `O=C(Nc1cnccc1-c1ccccc1)c1ccnc(NC2CCOCC2)n1` [Example 88, N-(4-Phenylpyridin-3-yl)-2-((tetrahydro-2H-pyran-4-yl)amino)pyrimidine-4-carboxamide], the half-inhibitory concentration (IC50) came out at 1.4 nM in test [1], 2.6 nM in test [2] (setting [4]) and 150 nM in test [3].
On the same counts, the results for `CC(Nc1nccc(C(=O)Nc2cnccc2-c2ccc(F)cc2)n1)C(C)(C)C` (stereo not drawn) [Example 157, 2-((3,3-Dimethylbutan-2-yl)amino)-N-(4-(4-fluorophenyl)pyridin-3-yl)pyrimidine-4-carboxamide] are 0.72 nM, 2.2 nM and 410 nM.
The corresponding values for `O=C(Nc1cnccc1C1CCOCC1)c1ccnc(Nc2ccc(OC(F)F)nc2)n1` [Example 80, 2-((6-(Difluoromethoxy)pyridin-3-yl)amino)-N-(4-(tetrahydro-2H-pyran-4-yl)pyridin-3-yl)pyrimidine-4-carboxamide] are 0.65 nM, 2.4 nM and 86 nM.
On the same counts, the results for `O=C(Nc1cncnc1)c1ccnc(Nc2ccccc2)n1` [Example 201, 2-(Phenylamino)-N-(pyrimidin-5-yl)pyrimidine-4-carboxamide] are 45 nM, 71 nM and 4200 nM.
Regarding `O=C(Nc1cnccc1-c1ccccc1)c1ccnc(NCC2CC2)n1` [Example 147, 2-((Cyclopropylmethyl)amino)-N-(4-phenylpyridin-3-yl)pyrimidine-4-carboxamide], the IC50 in test [1] is 0.14 nM; in test [2] (setting [4]), 0.14 nM; in test [3], 20 nM.
For `N#Cc1ccc(Nc2nccc(C(=O)Nc3cncnc3OCC(F)(F)F)n2)cc1` [Example 66, 2-((4-Cyanophenyl)amino)-N-(4-(2,2,2-trifluoroethoxy)pyrimidin-5-yl)pyrimidine-4-carboxamide], the IC50 in test [1] came out at 0.67 nM; in test [2] (setting [4]), 1 nM; in test [3], 22 nM.
On the same counts, the results for `O=C(Nc1cnccc1-c1ccccc1)c1ccnc(Nc2ccc(OC(F)F)cc2)n1` [Example 13, 2-((4-(Difluoromethoxy)phenyl)amino)-N-(4-phenylpyridin-3-yl)pyrimidine-4-carboxamide] are 0.3 nM, 0.45 nM and 60 nM.
On the same counts, the results for `O=C(Nc1cncnc1OCC(F)(F)F)c1ccnc(Nc2ccc(Cl)cc2)n1` [Example 67, 2-((4-Chlorophenyl)amino)-N-(4-(2,2,2-trifluoroethoxy)pyrimidin-5-yl)pyrimidine-4-carboxamide] are 0.36 nM, 0.97 nM and 90 nM.
On the same counts, the results for `O=C(Nc1cncnc1)c1ccnc(NCC2CC2c2ccc(F)cc2F)n1` (stereo not drawn) [Example 197, 2-(((2-(2,4-Difluorophenyl)cyclopropyl)methyl)amino)-N-(pyrimidin-5-yl)pyrimidine-4-carboxamide] are 21 nM, 24 nM and 5100 nM.
